Data as given in article PMC6934184, “Selective DNA-PKcs inhibition extends the therapeutic index of localized radiotherapy and chemotherapy” (The Journal of Clinical Investigation, 2019).

Molecular target: T1, NEK2 (Homo sapiens, UniProt P51955)
T1 construct: purchased Thermo Fisher Scientific (Life Technologies) SelectScreen
Experiment: SelectScreen Z'LYTE
Type: biochemical
Summary of the method: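 Percent values come from Thermo SelectScreen profiling of NU5455, combining activity and binding assays. CSF1R was run in Z'LYTE format at Km app ATP, and CAMK1 in Adapta format with ATP listed at 10.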

T1 sequence (P51955 whole entry): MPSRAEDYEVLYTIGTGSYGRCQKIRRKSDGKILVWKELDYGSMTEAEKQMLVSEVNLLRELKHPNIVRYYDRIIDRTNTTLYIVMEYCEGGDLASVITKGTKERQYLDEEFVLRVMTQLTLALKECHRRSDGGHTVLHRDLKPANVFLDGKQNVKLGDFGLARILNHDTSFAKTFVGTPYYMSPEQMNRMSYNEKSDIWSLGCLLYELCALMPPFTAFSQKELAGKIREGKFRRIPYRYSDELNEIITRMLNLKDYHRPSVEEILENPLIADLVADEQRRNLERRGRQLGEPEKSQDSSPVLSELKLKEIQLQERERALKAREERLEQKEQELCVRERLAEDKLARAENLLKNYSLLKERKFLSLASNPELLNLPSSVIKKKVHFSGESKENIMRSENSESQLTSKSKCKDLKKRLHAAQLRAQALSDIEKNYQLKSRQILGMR

How did the inhibition at 1 µM turn out when `CN(C(=O)CN1CCOCC1)c1ccc2sc3c(-c4cccc5c(=O)cc(N6CC7CCC(C6)O7)oc45)cccc3c2c1` [NU5455] was run?
The inhibition at 1 µM was 17.8%.
